Measured values published in US20250161184A1, “NOVEL USE” (DSM IP Assets B.V., priority 2022, published 2025).
“Also recorded” adds a separate entry of the source.

Test system: Normal human dermal fibroblasts
Assay: in vitro dermal fibroblast collagen assay (collagen 1 immunolabeling, flow cytometry)
Format: cell-based
Details: for Collagen 1 expression relative to untreated (%): 72 hours treatment, mean, n = 4, untreated = 100%; for effect on collagen type 1 (result in words): normal human dermal fibroblasts, 72 hours, several concentrations
Procedure: The neutral core human milk oligosaccharides LNT and LNnT were evaluated for their effect on collagen type 1. This was done using an in vitro dermal fibroblast collagen assay. […] For comparative reasons, also another human milk oligosaccharide was tested, i.e. 6′-silalyllactose (6′SL).
Normal human dermal fibroblasts were seeded in cell culture medium (Dulbecco's Modified Eagle Medium supplemented with 10% serum and 1% antibiotics) and allowed to adhere in a humidified cell incubator maintaining 37° C. and 5% CO2. Afterwards, the cells were starved with culture medium without serum for 16-24 hours to synchronize the cells their cell cycle. The starvation medium was removed and cell culture medium+LNT or LNnT respectively 6′SL at various concentrations was added to the cells. The cells were treated for 72 hours. The cells were then fixated and immunolabeled with antibodies specific for collagen 1. These labeled cells were analyzed using flow cytometry and compared to the untreated ones (medium without LNT respectively LNnT or 6′SL).

| Compound | Collagen 1 expression relative to untreated (%) (0.05 μM) | Collagen 1 expression relative to untreated (%) (0.10 μM) | Collagen 1 expression relative to untreated (%) (1.00 μM) | Collagen 1 expression relative to untreated (%) (50 μM) | Collagen 1 expression relative to untreated (%) (100 μM) | effect on collagen type 1 (result in words) | Collagen 1 expression relative to untreated (%) (0.50 μM) |
| --- | --- | --- | --- | --- | --- | --- | --- |
| CC(=O)N[C@H]1[C@H](O[C@H]2[C@@H](O)[C@@H](CO)O[C@@H](O[C@H]3[C@H](O)[C@@H](O)C(O)O[C@@H]3CO)[C@@H]2O)O[C@H](CO)[C@@H](O[C@@H]2O[C@H](CO)[C@H](O)[C@H](O)[C@H]2O)[C@@H]1O (mixture of isomers) [LNnT, lacto-N-neotetraose] | 117 | 129 | 167 | 172 | 177 | most active in inducing collagen synthesis; also recorded: increase collagen expression |  |
| CC(=O)N[C@H]1[C@H](O[C@H]2[C@@H](O)[C@@H](CO)O[C@@H](O[C@H]3[C@H](O)[C@@H](O)C(O)O[C@@H]3CO)[C@@H]2O)O[C@H](CO)[C@@H](O)[C@@H]1O[C@@H]1O[C@H](CO)[C@H](O)[C@H](O)[C@H]1O (stereo partly drawn) [LNT, lacto-N-tetraose] |  |  | 159 | 164 | 163 | increase collagen expression | 139 |
| CC(=O)N[C@H]1[C@H]([C@H](O)[C@H](O)CO)O[C@@](OC[C@H]2O[C@@H](O[C@H]3[C@H](O)[C@@H](O)[C@H](O)O[C@@H]3CO)[C@H](O)[C@@H](O)[C@H]2O)(C(=O)O)C[C@@H]1O [6′SL, 6′-silalyllactose, reference compound] |  | 103 | 121 | 100 |  | much smaller effect |  |
